Consider 28 compounds from PubChem BioAssay AID743284 (The Scripps Research Institute Molecular Screening Center, 2014).

Calls of active or inactive are those of the source.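 The calls were made as follows: active = compounds whose fitted concentration for half-maximal reporter inhibition is 10 µM or lower; inactive = the rest.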

This test deals with COUP transcription factor 2 (Homo sapiens) (UniProt P24468). The test can be described thus: COUP-TFII reporter suppression IC50 – cell-based, luciferase reporter, HEK293, powder samples, round 000, late-stage follow-up (AID 743284). As to conditions: HEK293 NGFI-A luciferase reporter, luminescence.
Chain of COUP transcription factor 2 (Homo sapiens) (P24468 whole entry, looked up): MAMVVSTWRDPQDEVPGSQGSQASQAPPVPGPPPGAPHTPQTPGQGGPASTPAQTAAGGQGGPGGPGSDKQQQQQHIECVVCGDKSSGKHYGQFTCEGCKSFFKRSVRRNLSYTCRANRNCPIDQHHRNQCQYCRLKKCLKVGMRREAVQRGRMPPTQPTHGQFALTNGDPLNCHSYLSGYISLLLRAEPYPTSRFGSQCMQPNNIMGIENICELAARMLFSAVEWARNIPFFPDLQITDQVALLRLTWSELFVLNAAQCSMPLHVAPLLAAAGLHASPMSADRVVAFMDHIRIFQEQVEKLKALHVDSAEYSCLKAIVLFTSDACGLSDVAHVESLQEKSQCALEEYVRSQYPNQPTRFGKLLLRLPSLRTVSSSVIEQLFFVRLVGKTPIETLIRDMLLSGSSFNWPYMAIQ
Turning to `COc1ccc(NS(=O)(=O)c2ccc(-c3coc(C)n3)cc2)cc1OC`, the IC50 is 5.73 µM.
For the compound `COc1ccc(NS(=O)(=O)c2cccc(NC(=O)c3ccc(Cl)nc3)c2)cc1`, the IC50 is 3.46 µM.
As for `COc1ccc(CCNc2ncnc3sccc23)cc1OC`, the figure is 1.79 µM; as for `CCOc1cc(S(=O)(=O)NCc2ccncc2)ccc1Cl`, 2.06 µM.
As to `CC(=O)Nc1ccccc1OCC(=O)c1cc(C)n(Cc2cccs2)c1C`, the IC50 is 0.586 µM.
The same measure for `Cc1ccc(S(=O)(=O)CC2CSc3nc4ccccc4n32)cc1` (stereo not drawn): 4.16 µM.
As for `COc1ccc(CN(C)c2ccc(S(=O)(=O)N3CCN(C)CC3)cc2[N+](=O)[O-])cc1OC`, the figure is 2.76 µM.
With `Cc1oc(-c2ccc(Cl)cc2)nc1CS(=O)CC(=O)NCCCN1CCN(Cc2ccccc2)CC1` (stereo not drawn), the IC50 is 6.24 µM.
As for `Cc1cc(-n2nc3ccccc3n2)c2oc(SCC(=O)NC(C)(C)C)nc2c1`, the entry is “inactive”; as for `Cc1nn(C)c(C)c1CN(C)S(=O)(=O)c1ccc2ccccc2c1`, 3.27 µM.
Consider `Cc1sc2ncnc(NCC3COc4ccccc4O3)c2c1C` (stereo not drawn), for which the IC50 is 3.27 µM.
Regarding `COc1ccc(CCNc2ncnc3sc(C)cc23)cc1OC`, the IC50 is 1.49 µM.
The same measure for `CCC1CCCCN1C(=O)c1cc(COc2ccc3ncccc3c2)on1` (stereo not drawn): 3.33 µM.
The same measure for `Cn1nccc1C(=O)NC1CCCc2c1cnn2-c1ccc(C(C)(C)C)cc1` (stereo not drawn): 1.38 µM; for `CCOC(=O)C1CCCN(S(=O)(=O)c2ccc(S(=O)(=O)N(CC)CC)cc2)C1` (stereo not drawn): 3.02 µM; for `CC(Nc1ncnc2ccccc12)c1ccccc1` (stereo not drawn): 4.97 µM.
As for `Cc1cc(-n2c(C)cc(C(=O)CSc3ncnc4ccccc34)c2C)no1`, the figure is 6.99 µM.
Consider `CCN(CC)S(=O)(=O)c1cccc(NC(=O)CNc2cccc(S(=O)(=O)N3CCCC3)c2)c1`, for which the IC50 is 3.99 µM.
The same measure for `Cc1cc(C)c(S(=O)(=O)NCc2ccncc2)c(C)c1`: 5.42 µM.
As for `COc1ccc(C2=Nn3c([n+](C)c4ccccc43)SC2)cc1`, the figure is 4.8 µM; as for `COc1ccc(OC)c(CCNC(=O)Cn2nc(C)c3c(C)n(-c4ccc(C)cc4)nc3c2=O)c1`, 3.14 µM.
For `Cc1sc2ncnc(NCCc3ccc(S(N)(=O)=O)cc3)c2c1C`, the IC50 is 5.74 µM.
`O=C(Nc1ccncc1)c1ccc(Cl)c(S(=O)(=O)N2CCc3ccccc32)c1`: the IC50 was 3.86 µM.
The same measure for `CC1Cc2cc(-c3csc(NC(=O)Cc4cccs4)n3)ccc2N1S(C)(=O)=O` (stereo not drawn): 2.3 µM; for `O=S(=O)(NCC1CCCO1)c1ccc(-c2ccc(S(=O)(=O)NCC3CCCO3)cc2)cc1` (stereo not drawn): 1.87 µM.
The same measure for `CN(CC1CCCO1)S(=O)(=O)c1ccc(C(=O)Nc2nc3cc4c(cc3s2)OCO4)cc1` (stereo not drawn): 1.99 µM.
As to `Cc1ccc(OCCN2CCN(c3ncnc4sc(C)c(C)c34)CC2)cc1`, the IC50 was 3.43 µM.
As for `CCOC(=O)N1CCN(C(=O)CSCC(=O)Nc2nc(-c3ccc(-c4ccccc4)cc3)cs2)CC1`, the figure is 2.91 µM.

By IC50 is commonly meant the concentration at which inhibition is half-maximal.
